{"source": "the supplement of paper PMC10307832", "assay_in_all_cases": "relative viability (nuclei count vs DMSO), 5 days (fraction); higher = more cells survive", "key": {"Vandetanib + Luminespib": {"compound": "COc1cc2/c(=N/c3ccc(Br)cc3F)nc[nH]c2cc1OCC1CCN(C)CC1 [Vandetanib] + CCNC(=O)c1noc(-c2cc(C(C)C)c(O)cc2O)c1-c1ccc(CN2CCOCC2)cc1 [Luminespib] (partner 0.01 µM)", "outline": "(§1)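 Dosing by pin tool came one day after lung cancer cell lines were seeded in 1536-well plates, using either one drug or a fixed anchor-drug dose plus five library-drug doses (not always all listed) in √10 steps. After 5 days, nuclei were counted on 4× images. Relative viability is treated-well nuclei count divided by vehicle-well nuclei count, and values are medians of duplicate plates.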"}, "[1]": {"compound": "C1=CC=C2C(=C1)N=C(S2)C(C#N)C3=NC(=NC=C3)NCCC4=CN=CC=C4 + CS(=O)(=O)N1CCN(Cc2cc3nc(-c4cccc5[nH]ncc45)nc(N4CCOCC4)c3s2)CC1 [Pictilisib] (partner 1 µM)", "outline": "as §1"}, "NVP-TAE684": {"compound": "COc1cc(N2CCC(N3CCN(C)CC3)CC2)ccc1Nc1ncc(Cl)c(Nc2ccccc2S(=O)(=O)C(C)C)n1 [NVP-TAE684]", "outline": "(§2)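 Lung cancer cell lines received five library-drug doses (not always all listed) spaced by √10, pinned on vehicle-anchored 1536-well plates after an overnight stay at 37 °C. Five days later, with no medium change, nuclei were Hoechst-stained, imaged at 4× and counted with MetaXpress. Viability is treated-well nuclei relative to vehicle-well nuclei, as a median across plates. Passing plates had control CV below 25% and at least one doubling.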"}, "CUDC-101": {"compound": "C#Cc1cccc(Nc2ncnc3cc(OC)c(OCCCCCCC(=O)NO)cc23)c1 [CUDC-101]", "outline": "as §2"}}}
{"cell line": "UMC-11", "values": [{"measurement": "relative viability", "setting": "Vandetanib + Luminespib; first compound 0.02 µM", "value": 1.06}, {"measurement": "relative viability", "setting": "Vandetanib + Luminespib; first compound 0.06325 µM", "value": 1.01}, {"measurement": "relative viability", "setting": "Vandetanib + Luminespib; first compound 0.2 µM", "value": 0.225}, {"measurement": "relative viability", "setting": "Vandetanib + Luminespib; first compound 0.6325 µM", "value": 0.998}, {"measurement": "relative viability", "setting": "Vandetanib + Luminespib; first compound 2 µM", "value": 1.03}, {"measurement": "relative viability", "setting": "[1]; first compound 0.005 µM", "value": 0.717}, {"measurement": "relative viability", "setting": "[1]; first compound 0.01581 µM", "value": 0.748}, {"measurement": "relative viability", "setting": "[1]; first compound 0.05 µM", "value": 0.689}, {"measurement": "relative viability", "setting": "[1]; first compound 0.1581 µM", "value": 0.877}, {"measurement": "relative viability", "setting": "[1]; first compound 0.5 µM", "value": 0.777}, {"measurement": "relative viability", "setting": "NVP-TAE684; 0.2 µM", "value": 1.04}, {"measurement": "relative viability", "setting": "NVP-TAE684; 0.6325 µM", "value": 0.876}, {"measurement": "relative viability", "setting": "NVP-TAE684; 2 µM", "value": 0.465}, {"measurement": "relative viability", "setting": "CUDC-101; 0.01 µM", "value": 1.03}, {"measurement": "relative viability", "setting": "CUDC-101; 0.03162 µM", "value": 0.957}, {"measurement": "relative viability", "setting": "CUDC-101; 0.1 µM", "value": 0.927}, {"measurement": "relative viability", "setting": "CUDC-101; 0.3162 µM", "value": 0.705}, {"measurement": "relative viability", "setting": "CUDC-101; 1 µM", "value": 0.31}]}
